Assays:
ΔF508 CTFR [1] = target: T1, ΔF508 CTFR (Homo sapiens, UniProt P13569, DEL508-508); assay: Potentiator assay, FRT cell electrophysiological (Ussing chamber) assay; assay type: cell-based; conditions: change in ISC after acute addition of 1 μM compound to mucosal side of vehicle treated FRT cells divided by total change in ISC after 1 μM compound, 100 μM IBMX, 20 μM genistein
T1 construct: expressed in transfected cells; host or cells: FRT epithelial cells (Fischer rat thyroid)
Experimental: (§1) For use in the corrector assay, FRT epithelial cell monolayers are grown on Snapwell filter inserts and optionally treated with a compound of invention, vehicle (DMSO) or reference corrector N-(2-(5-chloro-2-methoxyphenylamino)-4′-methyl-4,5′-bithiazol-2′-yl)pivalamide (C17). Cells are exposed to compound, vehicle (negative control) or reference corrector (positive control) in a cell/tissue incubator at 37° C. for 24 hours prior to the assay. The inserts are then transferred to a Physiologic Instruments Ussing chamber (P2302) and superfused with 5 ml of a HEPES buffered physiological saline (HB-PS) as the serosal solution with composition (in mM): NaCl, 137; KCl, 4.0; CaCl2, 1.8; MgCl2, 1; HEPES, 10; Glucose, 10; pH adjusted to 7.4 with NaOH. The mucosal solution will be 5 ml of 10CF—PS with composition (in mM): Na-gluconate, 137; KCl, 4; CaCl2, 1.8; MgCl2, 1; HEPES, 10; Glucose, 10; pH adjusted to 7.4 with N-methyl-D-glucamine to create a transepithelial Cl ion gradient. Transepithelial voltage is clamped to 0 mV and the short circuit current (ISC)—reflecting the net ion (Cl—) transport across the epithelial cell monolayer—is measured using a Physiologic Instruments VCC MC8 epithelial voltage clamp (Physiologic Instruments, Inc., San Diego, Calif.). The assay is carried out at 27° C.
(§2) After acquisition of at least 10 minutes of baseline current, agonists (final concentrations: 10 μM forskolin, 100 μM 3-isobutyl-1-methylxanthine [IBMX] and 20 μM genistein) and antagonist (final concentration: 20 μM CFTRinh-172) will be applied sequentially and cumulatively at ˜10-15 minute intervals to both serosal and mucosal epithelial surfaces. On occasion where a 10-15 min interval is not sufficient for ISC to reach a new steady-state after compound addition, the interval between compound additions may have been extended.
(§3) Agonists are added as 200×-1000× stock solutions to both the serosal and mucosal sides. Transepithelial resistance is monitored every 20 s. In a potentiator assay, appropriate volumes from 10 mM compound stock solution in DMSO are added to the mucosal side (i.e. the 10CF—PS solution containing half chamber) of vehicle treated inserts. Compound is added acutely after activation of CFTR by Forskolin and prior to additions of IBMX, genistein, and CFTRinh-172.
(§4) Corrector efficacy—as given in Table 3—is measured as the total change in ISC (i.e. the difference in ISC before and after addition of all agonists) obtained from cells treated with 3 μM compound of invention and normalized to the total change in ISC obtained from the same batch of cells treated contemporaneously with 10 μM reference corrector C17. Potentiator efficacy—as given in Table 3—is measured as the change in ISC after acute addition of 1 μM compound to the mucosal side of vehicle treated cells divided by the total change in ISC after sequential additions of 1 μM compound, 100 μM IBMX, and 20 μM genistein.

ΔF508 CTFR [2] = target: T1, ΔF508 CTFR; assay: Corrector assay, FRT cell electrophysiological (Ussing chamber) assay; assay type: cell-based; conditions: FRT cells treated 24 hours with 3 μM compound; total change in ISC normalized to 10 μM reference corrector C17
Experimental: as §1, §2, §3, §4

T1 sequence (P13569 with tags, fused parts or gaps DEL508-508): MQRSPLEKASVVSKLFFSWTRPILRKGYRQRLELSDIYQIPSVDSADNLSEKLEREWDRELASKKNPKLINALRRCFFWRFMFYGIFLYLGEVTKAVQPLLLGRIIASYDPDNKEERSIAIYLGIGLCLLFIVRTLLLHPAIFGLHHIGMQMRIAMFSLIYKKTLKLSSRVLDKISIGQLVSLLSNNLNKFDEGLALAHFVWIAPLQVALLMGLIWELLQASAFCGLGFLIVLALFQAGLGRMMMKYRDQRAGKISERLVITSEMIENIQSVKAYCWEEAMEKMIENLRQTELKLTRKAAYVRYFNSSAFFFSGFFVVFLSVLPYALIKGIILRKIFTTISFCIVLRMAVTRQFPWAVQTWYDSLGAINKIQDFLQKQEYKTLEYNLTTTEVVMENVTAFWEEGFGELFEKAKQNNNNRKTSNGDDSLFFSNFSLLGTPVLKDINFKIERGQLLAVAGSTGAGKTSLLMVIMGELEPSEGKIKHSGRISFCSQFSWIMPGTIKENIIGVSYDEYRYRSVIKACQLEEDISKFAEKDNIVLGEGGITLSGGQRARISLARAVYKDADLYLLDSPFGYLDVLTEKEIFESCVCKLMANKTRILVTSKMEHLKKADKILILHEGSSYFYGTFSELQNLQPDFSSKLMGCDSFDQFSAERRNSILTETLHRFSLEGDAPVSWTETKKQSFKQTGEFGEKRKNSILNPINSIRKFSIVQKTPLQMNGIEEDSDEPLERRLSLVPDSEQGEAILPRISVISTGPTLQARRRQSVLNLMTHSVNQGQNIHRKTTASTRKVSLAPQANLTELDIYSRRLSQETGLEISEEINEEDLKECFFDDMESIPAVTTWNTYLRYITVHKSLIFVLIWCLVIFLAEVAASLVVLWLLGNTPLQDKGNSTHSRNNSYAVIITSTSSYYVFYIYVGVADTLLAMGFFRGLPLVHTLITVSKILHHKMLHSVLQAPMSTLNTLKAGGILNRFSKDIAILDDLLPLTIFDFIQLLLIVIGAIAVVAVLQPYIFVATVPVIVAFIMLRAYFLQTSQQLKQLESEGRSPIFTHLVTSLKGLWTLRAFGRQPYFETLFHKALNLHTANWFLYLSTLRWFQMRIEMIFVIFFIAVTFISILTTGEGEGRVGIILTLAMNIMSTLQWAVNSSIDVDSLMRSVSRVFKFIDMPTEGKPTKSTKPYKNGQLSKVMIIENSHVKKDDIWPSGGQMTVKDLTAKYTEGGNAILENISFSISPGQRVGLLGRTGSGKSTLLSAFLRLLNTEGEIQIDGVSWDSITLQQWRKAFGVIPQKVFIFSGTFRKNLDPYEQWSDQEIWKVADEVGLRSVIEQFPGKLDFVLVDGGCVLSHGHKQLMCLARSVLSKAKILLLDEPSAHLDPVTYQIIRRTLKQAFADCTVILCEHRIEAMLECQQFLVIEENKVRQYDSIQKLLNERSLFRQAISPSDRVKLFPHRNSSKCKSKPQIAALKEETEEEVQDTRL

| SMILES | Potentiator Efficacy (ΔF508 CTFR [1]) | Corrector Efficacy (ΔF508 CTFR [2]) |
| --- | --- | --- |
| CN(C)S(=O)(=O)N1CC(Oc2nc(N[C@H]3CC[C@@H](C)CC3)ncc2-c2ccc(N3CCOCC3)cc2)C1 [Example 1, N,N-dimethyl-3-(2-((1s,4s)-4-methylcyclohexylamino)-5-(4-morpholinophenyl)-pyrimidin-4-yloxy)azetidine-1-sulfonamide] | ++ (++=0.1-0.25) | +++ (+++=>0.6) |
| C[C@H]1CC[C@@H](Nc2ncc(-c3ccc(O[C@H]4CCOC4)cc3)c(O[C@@H]3CCOC3)n2)CC1.Cl [Example 6, 4-((R)-tetrahydrofuran-3-yloxy)-5-(4-((S)-tetrahydrofuran-3-yloxy)phenyl)-N-(cis-4-methylcyclohexyl)pyrimidin-2-amine hydrochloride salt] | ++ (++=0.1-0.25) | ++ (++=0.3-0.6) |
| Cc1nc(N[C@H]2CC[C@@H](C)CC2)nc(O[C@@H]2CCOC2)c1-c1ccc(N2CCOCC2)cc1 [Example 43, 4-methyl-N-((1s,4S)-4-methylcyclohexyl)-5-(4-morpholinophenyl)-6((R)-tetrahydrofuran-3-yloxy)pyrimidin-2-amine] | + (+=<0.1) | ++ (++=0.3-0.6) |
| CS(=O)(=O)N1CC(Oc2nc(N[C@H]3CC[C@@H](C)CC3)ncc2-c2ccc(N3CCOCC3)cc2)C1 [Example 59, N-((1s,4s)-4-methylcyclohexyl)-4-(1-(methylsulfonyl)azetidin-3-yloxy)-5-(4-morpholinophenyl)pyrimidin-2-amine] | + (+=<0.1) | ++ (++=0.3-0.6) |
| CS(=O)(=O)N1CC[C@@H](COc2nc(N[C@H]3CC[C@@H](C)CC3)ncc2-c2ccc(N3CCOCC3)cc2)C1 [Example 78] | + (+=<0.1) | ++ (++=0.3-0.6) |
| CS(=O)(=O)N1CC(COc2nc(N[C@H]3CC[C@@H](C)CC3)ncc2-c2ccc(N3CCOCC3)cc2)C1 [Example 80, N-((1s,4s)-4-methylcyclohexyl)-4-((1-(methylsulfonyl)azetidin-3-yl)methoxy)-5-(4-morpholinophenyl)pyrimidin-2-amine] | +++ (+++=>0.25) | ++ (++=0.3-0.6) |
| CC1CCC(Nc2ncc(-c3ccc(O[C@@H]4CCOC4)cc3)c(OC3CCOCC3)n2)CC1 (stereo partly drawn) [Example 93, N-((1s,4s)-4-methylcyclohexyl)-4-(tetrahydro-2H-pyran-4-yloxy)-5-(4-((R)-tetrahydrofuran-3-yloxy)phenyl)pyrimidin-2-amine] | ++ (++=0.1-0.25) | +++ (+++=>0.6) |
| COC(=O)N1CCC(Oc2ccc(-c3cnc(NC4CCC(C)CC4)nc3O[C@@H]3CCOC3)cc2)C1 (stereo partly drawn) [Example 103, methyl 3-(4-(2-((1s,4S)-4-methylcyclohexylamino)-4-((R)-tetrahydrofuran-3-yloxy)pyrimidin-5-yl)phenoxy)pyrrolidine-1-carboxylate] | + (+=<0.1) | ++ (++=0.3-0.6) |
| CC1CCC(Nc2ncc(-c3ccc(OC4CCN(C(=O)N(C)C)C4)cc3)c(O[C@@H]3CCOC3)n2)CC1 (stereo partly drawn) [Example 112, N,N-dimethyl-3-(4-(2-((1s,4S)-4-methylcyclohexylamino)-4-((R)-tetrahydrofuran-3-yloxy)pyrimidin-5-yl)phenoxy)pyrrolidine-1-carboxamide] | + (+=<0.1) | ++ (++=0.3-0.6) |
| CC1CCC(Nc2ncc(-c3ccc(O[C@H]4CCOC4)cc3)c(OC3CCN(S(C)(=O)=O)CC3)n2)CC1 (stereo partly drawn) [Example 152, N-((1s,4s)-4-methylcyclohexyl)-4-(1-(methylsulfonyl)piperidin-4-yloxy)-5-(4-((S)-tetrahydrofuran-3-yloxy)phenyl)pyrimidin-2-amine] | +++ (+++=>0.25) | +++ (+++=>0.6) |
| COCCOc1ccc(-c2cnc(N[C@H]3CC[C@@H](C)CC3)nc2OC2CN(S(C)(=O)=O)C2)cc1 [Example 153, 5-(4-(2-methoxyethoxy)phenyl)-N-((1s,4s)-4-methylcyclohexyl)-4-(1-(methylsulfonyl)azetidin-3-yloxy)pyrimidin-2-amine] | + (+=<0.1) | ++ (++=0.3-0.6) |
| CC1CCCC(C)C1Nc1ncc(-c2ccc(O[C@H]3CCOC3)cc2)c(O[C@@H]2CCOC2)n1 (stereo partly drawn) [Example 170, N-(2,6-dimethylcyclohexyl)-4-((R)-tetrahydrofuran-3-yloxy)-5-(4-((S)-tetrahydrofuran-3-yloxy)phenyl)pyrimidin-2-amine] | + (+=<0.1) | +++ (+++=>0.6) |
| COCCc1ccc(-c2cnc(N[C@H]3CC[C@@H](C)CC3)nc2OC2CCN(C(=O)OC)CC2)cc1 [Example 206, methyl 4-(5-(4-(2-methoxyethyl)phenyl)-2-((1s,4s)-4-methylcyclohexylamino)pyrimidin-4-yloxy)piperidine-1-carboxylate] | + (+=<0.1) | ++ (++=0.3-0.6) |
| CC1CCC(Nc2ncc(-c3ccc(O[C@@H]4CCOC4)cc3)c(OC3CN(S(=O)(=O)N(C)C)C3)n2)CC1 (stereo partly drawn) [Example 207, N,N-dimethyl-3-(2-((1s,4s)-4-methylcyclohexylamino)-5-(4-((R)-tetrahydrofuran-3-yloxy)phenyl)pyrimidin-4-yloxy)azetidine-1-sulfonamide] | + (+=<0.1) | +++ (+++=>0.6) |
| CC1CCC(Nc2ncc(-c3ccc(O[C@H]4CCOC4)cc3)c(OC3CN(S(=O)(=O)N(C)C)C3)n2)CC1 (stereo partly drawn) [Example 214, N,N-dimethyl-3-(2-((1s,4s)-4-methylcyclohexylamino)-5-(4-((S)-tetrahydrofuran-3-yloxy)phenyl)pyrimidin-4-yloxy)azetidine-1-sulfonamide] | + (+=<0.1) | +++ (+++=>0.6) |
| CC1CCC(Nc2ncc(-c3ccc(O[C@H]4CCOC4)cc3)c(OC3CN(S(=O)(=O)C4CC4)C3)n2)CC1 (stereo partly drawn) [Example 215, 4-(1-(cyclopropylsulfonyl)azetidin-3-yloxy)-N-((1s,4s)-4-methylcyclohexyl)-5-(4-((S)-tetrahydrofuran-3-yloxy)phenyl)pyrimidin-2-amine] | +++ (+++=>0.25) | +++ (+++=>0.6) |

Reference: patent US8334292B1, “Pyrimidine compounds and methods of making and using same” (Cystic Fibrosis Foundation Therapeutics, Inc., priority 2010, dated 2012)
